“And” between values parts separate entries of the source, which are not always exact repeats. Equal entries are not always repeated.
Target: T1, chymotrypsin-like activity of the 20S proteasome (Homo sapiens, UniProt P20618+P28074)
T1 construct: purified human placenta 20S proteasome; tissue Diabetes Forschungsinstitut, Düsseldorf, Germany; host or cells: human placenta
Test: Inhibition of the chymotrypsin-like activity of the 20S proteasome (Suc-LLVY-AMC hydrolysis)
Format: biochemical
Conditions: purified human placenta 20S proteasome, Suc-LLVY-AMC substrate, read-out: IC50 [μM] (results of one or two experiments)
Excerpt: It is based on the hydrolysis of the fluorogenic peptide Suc-LLVY-AMC (Succinyl-leucine-leucine-vatine-tyrosine-7-amino-4-methyl-coumarin), which is cleaved exclusively at the Y-AMC bond by the 20S proteasome. Hydrolysis of this peptide is accompanied by an increase in fluorescence intensity (λex (excitation wavelength): 355 nm; μem (emission wavelength): 460 nm) due to release of the […] that accompanies diffusion apart of the hydrolysis product Suc-LLVY.
2 μl of a 1 mM solution of a test compound in DMSO (dimethylsulfoxide, 20 μM final concentration in the well) are preincubated for 60 min at room temperature in black 96-well microtiter plates together with a mixture of 1 μl purified human placenta 20S proteasome (Diabetes Forschungsinstitut, DÜsseldorf, Germany; about 100 ng proteasome, depending on the proteasome preparation) and 47 μl buffer-Ca (5 mM CaCl2, 20 mM Tris/HCl (Tris-(hydroxymethyl)-amino-methane hydrochloride) pH 8.0). 3 μl of a 2.67 mM solution of Suc-LLVY-AMC (Bachem, Switzerland) in DMSO (80 μM final concentration in the well) and 47 μl buffer-Ca are mixed and added. The resulting mixture is incubated for 3-24 h at 37° C. If desired, proteolysis of the substrate can be stopped by addition of 50 μl stop solution (100 mM monochloroacetic acid, 130 mM NaOH, 100 mM acetic acid, pH=4.3). The fluorescence is monitored with a FLUOROSKAN ASCENT™ microtiter plate reader.
For each measurement series two control experiments are carried out: • 1.) 0% value: 2 μl DMSO are used in the above described assay instead of 2 μl of a 1 mM solution of a test compound in DMSO and 48 μl buffer-Ca instead of a mixture of 47 μl buffer-Ca and 1 μl purified proteasome. • 2.) 100% value: in the above described assay 2 μl DMSO are used instead of 2 μl of a 1 mM solution of the test compound in DMSO. Calculation [formula]
The IC50 value is defined as that concentration of a compound at which the remaining activity is 50% compared to the […].

Row | SMILES | IC50
1 | COc1cc(C[C@H](Nc2cccc(-c3ccccn3)c2)C(=O)N[C@H](C(=O)N[C@@H](CC(C)C)B2O[C@@H]3C[C@@H]4C[C@@H](C4(C)C)[C@]3(C)O2)C(C)C)cc(OC)c1OC [Example 13, (S)-3-Methyl-N-[(R)-3-methyl-1-((1S,2S,6R,8S)-2,9,9-trimethyl-3,5-dioxa-4-bora-tricyclo[6.1.1.0^2,6]dec-4-yl)-butyl]-2-[(S)-2-(3-pyridin-2-yl-phenylamino)-3-(3,4,5-trimethoxy-phenyl)-propionylamino]-butyramide] | 0.0013 µM
2 | COc1ccc(C[C@H](NC(=O)CCc2ccccc2)C(=O)N[C@H](C(=O)N[C@@H](CC(C)C)B(O)O)C(C)C)c(OC)c1OC [Example 6, (R)-3-Methyl-1-{(S)-3-methyl-2-[(S)-2-(3-phenyl-propionylamino)-3-(2,3,4-trimethoxy-phenyl)-propionylamino]-butyrylamino}-butylboronic acid] | 0.0018 µM and 0.0019 µM
3 | COc1ccc(C[C@H](Nc2cccc(-c3ccccc3)c2)C(=O)N[C@H](C(=O)N[C@@H](CC(C)C)B(O)O)C(C)C)cc1OC [Example 10, (R)-1-{(S)-2-[(S)-2-(Biphenyl-3-ylamino)-3-(3,4-dimethoxy-phenyl)-propionylamino]-3-methyl-butyrylamino}-3-methyl-butylboronic acid] | 0.0029 µM and 0.004 µM
4 | CC(C)C[C@H](NC(=O)[C@@H](NC(=O)[C@H](Cc1ccc(OCc2ccccc2)cc1)Nc1cccc(-c2ccccc2)c1)C(C)C)B(O)O [Example 18, (R)-1-{(S)-2-[(S)-3-(4-Benzyloxy-phenyl)-2-(biphenyl-3-ylamino)-propionylamino]-3-methyl-butyrylamino}-3-methyl-butylboronic acid] | 0.0015 µM
5 | COc1ccc(C[C@H](Nc2cccc(-c3ccccc3)c2)C(=O)N[C@H](C(=O)N[C@@H](CC(C)C)B(O)O)C(C)C)c(OC)c1OC [Example 16, (R)-1-{(S)-2-[(S)-2-(Biphenyl-3-ylamino)-3-(2,3,4-trimethoxy-phenyl)-propionylamino]-3-methyl-butyrylamino}-3-methyl-butylboronic acid] | 0.0059 µM
6 | COc1ccc(C[C@H](Nc2cccc(-c3ccccc3)c2)C(=O)N[C@H](C(=O)N[C@@H](CC(C)C)B2O[C@@H]3C[C@@H]4C[C@@H](C4(C)C)[C@]3(C)O2)C(C)C)cc1OC [Example 9, (S)-2-[(S)-2-(Biphenyl-3-ylamino)-3-(3,4-dimethoxy-phenyl)-propionylamino]-3-methyl-N-[(R)-3-methyl-1-((1S,2S,6R,8S)-2,9,9-trimethyl-3,5-dioxa-4-bora-tricyclo[6.1.1.0^2,6]dec-4-yl)-butyl]-butyramide] | 0.0017 µM and 0.0022 µM

More lines, now with the values ahead:

Row | IC50 | SMILES
7 | 0.0043 µM | COc1ccc(C[C@H](Nc2cccc(-c3ccccc3)c2)C(=O)N[C@H](C(=O)N[C@@H](Cc2ccccc2)B2O[C@@H]3C[C@@H]4C[C@@H](C4(C)C)[C@]3(C)O2)C(C)C)cc1 [Example 51, (S)-2-[(S)-2-(Biphenyl-3-ylamino)-3-(4-methoxy-phenyl)-propionylamino]-3-methyl-N-[(R)-2-phenyl-1-((1S,2S,6R,8S)-2,9,9-trimethyl-3,5-dioxa-4-bora-tricyclo[6.1.1.0^2,6]dec-4-yl)-ethyl]-butyramide]
8 | 0.0007 µM | COc1ccc(C[C@H](NC(=O)CCc2ccccc2)C(=O)N[C@@H](C)C(=O)N[C@@H](CC(C)C)B(O)O)c(OC)c1OC [Example 48, (R)-3-Methyl-1-{(S)-2-[(S)-2-(3-phenyl-propionylamino)-3-(2,3,4-trimethoxyphenyl)-propionylamino]-propionylamino}-butylboronic acid]
9 | 0.0018 µM | COc1ccc(C[C@H](Nc2cccc(-c3ccccc3)c2)C(=O)N[C@@H](C)C(=O)N[C@@H](CC(C)C)B2O[C@@H]3C[C@@H]4C[C@@H](C4(C)C)[C@]3(C)O2)cc1OC [Example 43, (S)-2-(Biphenyl-3-ylamino)-3-(3,4-dimethoxy-phenyl)-N-{(S)-1-[(R)3-methyl-1-((1S,2S,6R,8S)-2,9,9-trimethyl-3,5-dioxa-4-bora-tricyclo[6.1.1.0^2,6]dec-4-yl)-butylcarbamoyl]-ethyl}-propionamide]
10 | 0.004 µM | CC(C)C[C@H](NC(=O)[C@@H](NC(=O)[C@H](Cc1ccc(OCc2ccccc2)cc1)NC(=O)Cc1cccc(OCc2ccccc2)c1)C(C)C)B1O[C@@H]2C[C@@H]3C[C@@H](C3(C)C)[C@]2(C)O1 [Example 29, (S)-2-{(S)-3-(4-Benzyloxy-phenyl)-2-[2-(3-benzyloxy-phenyl)-acetylamino]-propionylamino}-3-methyl-N-[(R)-3-methyl-1-((1S,2S,6R,8S)-2,9,9-trimethyl-3,5-dioxa-4-bora-tricyclo[6.1.1.0^2,6]dec-4-yl)-butyl]-butyramide]
11 | 0.0017 µM | COc1cc(C[C@@H](Nc2cccc(-c3ccccc3)c2)C(=O)N[C@H](C(=O)N[C@@H](CC(C)C)B(O)O)C(C)C)cc(OC)c1OC [Example 22, (R)-1-{(S)-2-[(R)-2-(Biphenyl-3-ylamino)-3-(3,4,5-trimethoxy-phenyl)-propionylamino]-3-methyl-butyrylamino}-3-methyl-butylboronic acid]

— patent US6933290B2, “2-{N-(2-amino-3-(heteroaryl or aryl)propionyl)-aminoacyl}-amino}-alkylboronic acid derivatives” (Novartis AG, priority 2001, dated 2005)
